The record followed here is US10457639B2, “Fluorescent regulators of RASSF1A expression and human cancer cell proliferation” (GEORGETOWN UNIVERSITY, priority 2008, dated 2019).

Structures are written as SMILES. Bounds are passed on as bounds.

One series deals with RASSF1A. The series can be described thus: RT-PCR of RASSF1A mRNA in treated PC-3 cells. The series is classed as cell-based, human. As to conditions: 5 μM, 24 hours. The protocol: Representative photograph of an experiment repeated thrice. PC-3 cells were treated 24 hours with either 15 μM for compounds 6, 7, 7a, 8, 9, 10 or 5 μM for compound KED-4-69 (compound 6a) before RNA extraction and RT-PCR amplification.
Reverse Transcriptase-polymerase Chain Reaction (RT-PCR). From PC-3 cells incubated 24 hours with either 15 μM of compound 6, 7, 7a, 8, 9, 10 or 5 μM of KED-4-69 (compound 6a), RNA was extracted with TRIzol solution (Invitrogen, Carlsbad, Calif.) and genes of interest were amplified using 500 ng of total RNA reverse-transcribed to cDNA using a Superscript II kit (Invitrogen) with random hexamers. Human-specific primers were designed using the Primer Quest program and purchased from Integrated DNA Technologies, Inc. (Coralville, Iowa). Their sequences and product band sizes are: cyclin D1 forward primer 5′-[…]-3′ (SEQ ID NO:1), cyclin D1 reverse primer 5′-[…]-3′ (SEQ ID NO:2) (475 bp) and GAPDH forward primer: 5′-CCA […]-3′ (SEQ ID NO:3), GAPDH reverse primer: 5′-TCTAGACGGCAG GTCAGGTCCACC-3′ (SEQ ID NO:4) (598 bp). PCRs were initiated at 94° C. for 2 min, followed by 28 cycles of 94° C. for 1 min, 1 min annealing temperature, 72° C. for 1 min, and final extension at 72° C. for 5 min. The annealing temperature for cyclin D1 and GAPDH was 60° C. Primers and PCR conditions for RASSF1A are used as described by Rong et al. (Oncogene. 2004, 23, 8216-8230). After amplification, PCR products were separated on 1.5% agarose gels and visualized by ethidium bromide fluorescence using the Fuji LAS-1000 Imager. Images were captured and imported to Adobe Photoshop. Band intensities were quantified by using ImageJ software (NIH, Bethesda, Md.).
It has been reported that mRNA levels of RASSF1A correlate to its protein expression levels (Rong et al. Oncogene, 2004, 23: 8216-8230). To investigate the effects of the synthetic compounds on RASSF1A and cyclin D1 expression, levels of the respective mRNAs in treated cells compared to control were analyzed (FIG. 3). […] Because overexpression of cyclin D1 is associated with tumorigenicity and proliferation in a variety of tumors, including prostate cancers, this downregulation provides a cancer treatment method (Chen, Y. et al. Oncogene. 1998, 16, 1913-1920; Musgrove, E. A. et al. Proc. Natl. Acad. Sci. USA. 1994, 91, 8022-8026).

The next series concerns wild-type Balb/c mice. Briefly: Acute oral toxicity up-and-down procedure. The series is classed as in vivo. The method, then:
Animals. Balb/c mice and athymic Balb/c nude mice were purchased from the National Cancer Institute (NCI). Animals were housed 4-6 per cage with microisolater tops and provided food (Furina mice chow) and water ad libitum. The light cycle was regulated automatically (12 hours light/dark cycle) and temperature was maintained at 23±1° C. All animals were allowed to acclimate to this environment for one week prior to experimental manipulations. The Georgetown University Animal Care and Use Committee approved all animal studies in accordance with the guidelines adopted by the National Institute of Health.
This provided an ample therapeutic index of >55 at a starting efficacy dose of 10 mg/kg. Athymic Balb/c nude mice with human prostate tumor xenografts were dosed via intraperitoneal injection with 10 mg/kg of compound 6a once a day every other day for 25 days. Control mice were dosed with vehicle alone. Compound 6a reduced tumor volume by roughly 40% compared to control over 25 days (FIG. 8).

For a further series, the target named is T1, DNMT3a (Homo sapiens, UniProt Q9Y6K1).
T1 construct: treated with propidium iodide (nuclear localization) and DNMT3a or DNMT3b; endogenous in cells; host or cells: PC-3 human prostate cancer cells
T1 sequence (Q9Y6K1 whole entry, looked up): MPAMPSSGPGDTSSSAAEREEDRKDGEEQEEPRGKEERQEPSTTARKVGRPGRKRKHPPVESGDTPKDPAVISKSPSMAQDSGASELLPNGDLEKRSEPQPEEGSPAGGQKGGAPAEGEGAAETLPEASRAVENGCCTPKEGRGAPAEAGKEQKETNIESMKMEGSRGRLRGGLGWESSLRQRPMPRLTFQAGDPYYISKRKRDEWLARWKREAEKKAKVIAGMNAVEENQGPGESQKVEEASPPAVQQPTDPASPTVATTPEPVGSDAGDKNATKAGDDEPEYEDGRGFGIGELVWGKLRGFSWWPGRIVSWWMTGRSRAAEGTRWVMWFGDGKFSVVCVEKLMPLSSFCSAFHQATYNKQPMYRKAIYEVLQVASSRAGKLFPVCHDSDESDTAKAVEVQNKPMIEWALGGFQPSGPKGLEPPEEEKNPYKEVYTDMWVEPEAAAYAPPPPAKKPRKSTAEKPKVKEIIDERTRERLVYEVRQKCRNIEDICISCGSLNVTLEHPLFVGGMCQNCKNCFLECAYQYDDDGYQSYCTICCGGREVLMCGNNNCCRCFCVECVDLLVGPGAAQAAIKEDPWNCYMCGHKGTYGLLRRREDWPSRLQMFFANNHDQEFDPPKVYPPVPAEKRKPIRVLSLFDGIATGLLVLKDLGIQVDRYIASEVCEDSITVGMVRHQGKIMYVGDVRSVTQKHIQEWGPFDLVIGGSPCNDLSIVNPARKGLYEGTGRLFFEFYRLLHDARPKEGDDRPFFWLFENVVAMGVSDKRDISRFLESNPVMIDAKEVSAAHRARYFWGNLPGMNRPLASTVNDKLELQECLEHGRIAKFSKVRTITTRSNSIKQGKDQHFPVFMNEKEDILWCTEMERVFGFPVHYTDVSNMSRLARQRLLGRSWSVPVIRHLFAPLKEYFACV
The series can be described thus: Multiphoton laser imaging, DNMT3a antibody staining. The series is classed as cell-based. To be noted: PC-3 cells, 5 μM (data not shown). The protocol:
Multiphoton laser imaging. After incubating slides with a fibronectin/cortactin solution for 30 minutes, PC-3 cells were plated onto the slides and incubated overnight. The cells were then treated with a 5 μM solution of compound 6a or DMSO control and incubated for 1-6 hour before washing with PBS. The slides were fixed with a 4% formaldehyde solution, washed with PBS then treated with propidium iodide (nuclear localization) and DNMT3a or DNMT3b. The compound was excited at 725 nm with a multiphoton laser and imaged with a 500-550 nm filter.
The dansyl moiety present in compound 6a allows it to visibly fluoresce at 552 nm when excited at 370 nm (FIG. 4A). After treating PC-3 cells with compound 6a, a multiphoton laser was used to excite the compound, and its emission from within the cells was observed by confocal microscopy (FIG. 4B-D). […] To further confirm the hypothesis that compound 6a interaction with DNMT is a crucial factor in the ultimate up-regulation of RASSF1A, the cell samples were stained with antibodies for the DNMT isoforms known to shuttle between the nucleus and the cytoplasm, DNMT3a and DNMT3b (Kim et al., EMBO J, 2002, 21: 4183-4195; Majumber et al., JBC, 2002, 277: 16048-16058). […] Thus, cytoplasmic sequestering of DNMT3b is implied as a mode of action for compound 6a.

For the compound `COc1ccc2c(c1)[nH]c1c(C)c(OS(=O)(=O)c3cccc4c(N(C)C)cccc34)ccc12` [Compound 6a, 7-Methoxy-1-methyl-9H-carbazol-2-yl 5-(dimethylamino)naphthalene-1-sulfonate], the “RASSF1A mRNA level versus control” value in the series with RASSF1A is listed as “significant increase in RASSF1A”. In addition, the therapeutic index in the series on wild-type Balb/c mice (550 mg/kg without toxicity versus starting efficacy dose of 10 mg/kg) is recorded as above 55. In the series on wild-type Balb/c mice (wild-type Balb/c mice dosed up to 550 mg/kg, oral), the acute oral toxicity result is recorded as “no toxicity was observed”. Besides, the DNMT3a localization entry on DNMT3a was “No corresponding effect was seen with DNMT3a”.
